Experiments:
Experiment in all cases: relative viability (nuclei count vs DMSO), 5 days (fraction); higher = more cells survive
[1] = compound: CCc1c2c(nc3ccc(OC(=O)N4CCC(N5CCCCC5)CC4)cc13)-c1cc3c(c(=O)n1C2)COC(=O)[C@]3(O)CC [Irinotecan] + Cc1nc(NC(=O)N2CCC[C@H]2C(N)=O)sc1-c1ccnc(C(C)(C)C(F)(F)F)c1 [Alpelisib] (partner 2 µM)
In short: (§1)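 Lung cancer cell lines in 1536-well plates were dosed by pin tool the day after seeding, either with one drug alone or with a fixed anchor-drug dose plus five library-drug doses (not always all listed) in √10 steps. After 5 days, cells were fixed and their nuclei stained in one step (final 0.05% Triton X-100, 1% formaldehyde, 1 ug/ml Hoechst), then counted on 4× images. Relative viability is the nuclei count in treated wells divided by that in vehicle wells. Values are medians of duplicate plates.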

[2] = compound: CC[C@@H](C)CNCC(=O)N1CCC2=C([C@@H]1COC3=CC=CC(=C3)C)C=CS2 [RU-SKI 43] + O=C(c1cc(Cc2n[nH]c(=O)c3ccccc23)ccc1F)N1CCN(C(=O)C2CC2)CC1 [Olaparib] (partner 8 µM)
In short: as §1

[3] = compound: CCc1c2c(nc3ccc(OC(=O)N4CCC(N5CCCCC5)CC4)cc13)-c1cc3c(c(=O)n1C2)COC(=O)[C@]3(O)CC [Irinotecan] + Cc1nc(Nc2ncc(C(=O)Nc3c(C)cccc3Cl)s2)cc(N2CCN(CCO)CC2)n1 [Dasatinib] (partner 0.075 µM)
In short: as §1

[4] = compound: CC[C@@H](C)CNCC(=O)N1CCC2=C([C@@H]1COC3=CC=CC(=C3)C)C=CS2 [RU-SKI 43] + C[C@]1(O)C[C@@H](c2nc(-c3ccc4ccc(-c5ccccc5)nc4c3)c3c(N)nccn32)C1 [Linsitinib] (partner 1 µM)
In short: as §1

Cell Line	relative viability ([1]; first compound 2 µM)	relative viability ([1]; first compound 6.325 µM)	relative viability ([1]; first compound 20 µM)	relative viability ([2]; first compound 0.1 µM)	relative viability ([2]; first compound 0.3162 µM)	relative viability ([2]; first compound 1 µM)	relative viability ([2]; first compound 3.162 µM)	relative viability ([2]; first compound 10 µM)	relative viability ([3]; first compound 2 µM)	relative viability ([3]; first compound 6.325 µM)	relative viability ([3]; first compound 20 µM)	relative viability ([4]; first compound 0.1 µM)	relative viability ([4]; first compound 0.3162 µM)	relative viability ([4]; first compound 1 µM)	relative viability ([4]; first compound 3.162 µM)	relative viability ([4]; first compound 10 µM)	relative viability ([1]; first compound 0.6325 µM)	relative viability ([3]; first compound 0.6325 µM)
201T	0.87	0.465	0.331	0.835	0.888	0.843	0.858	0.836	0.552	0.529	0.36	1.07	1.02	1.07	1.17	1.03		
NCI-H1734	0.331	0.143	0.233	0.559	0.661	0.656	0.589	0.591	0.385	0.218	0.155	0.905	0.818	0.918	0.934	0.791	0.625	
SW 1573	0.481	0.192	0.204	0.442	0.479	0.51	0.435	0.41	0.544	0.161	0.108	0.884	0.824	0.841	0.692	0.688	0.829	0.317
NCI-H1993	0.643	0.63	0.68	1.12	1.22	1.16	0.948	0.942	0.601	0.484	0.603	0.745	0.732	0.661	0.721	0.762	0.617	0.549
NCI-H1755	0.434	0.292	0.363	0.835	0.975	0.99	0.923	0.908	0.45	0.308	0.271	1.02	1.13	1.05	1.02	0.993	0.822	0.373
PC-14	0.9	0.465	0.184	0.22	0.174	0.294	0.263	0.401	0.244	0.127	0.088	0.962	1	1.05	1.07	0.939	0.925	0.273
NCI-H358	0.561	0.311	0.248	0.548	0.936	0.756	0.636	0.545	0.151	0.136	0.105	0.706	0.781	0.819	0.933	0.687	0.628	0.142
LK-2	1.4	0.487	0.259	0.808	0.639	0.788	0.612	0.75	0.298	0.249	0.287	0.74	0.564	0.674	0.495	0.889	1.17	0.251
HCC-827	0.252	0.203	0.233	0.614	0.733	0.659	0.72	0.669	0.219	0.247	0.227	0.96	0.936	1.04	1.02	0.734	0.522	0.459
LCLC-97TM1	0.165	0.154	0.224	0.408	0.347	0.535	0.446	0.416	0.589	0.121	0.132	0.221		0.172	0.201	0.182	0.105	0.711
EMC-BAC-2	0.28	0.165	0.181	0.476	0.495	0.54	0.487	0.486	0.324	0.215	0.304	0.811	0.982	0.895	0.838	0.851	0.483	0.292
NCI-H647	0.435	0.197	0.202	0.584	0.821	0.512	0.695	0.628	0.187	0.131	0.0807	1.15	1.56	1.38	1.47	0.982	0.816	0.123
NCI-H1944	0.271	0.168	0.167	0.391	0.417	0.413	0.433	0.386	0.189	0.121	0.107	1.24	1.2	1.34	1.24	1.15	0.58	0.151
PC-3 [JPC-3]	0.413	0.319	0.305	1.09	1.3	1.2	1.2	1.06	0.915	0.693	0.345	0.885	0.956	1.03	1.02	0.866	0.814	0.882
SK-LU-1	0.541	0.351	0.273	0.449	0.397	0.531	0.46	0.44	0.19	0.207	0.173	1.06	1.22	1.26	1.18	0.917	0.459	0.188
NCI-H1975	0.68	0.324	0.195	0.752	1	0.892	0.729	0.767	0.469	0.305	0.155	0.985	1.1	0.951	0.996	0.869	0.654	0.28
HARA	0.211	0.215	0.177	0.822	0.735	0.754	0.894	0.923	0.188	0.114	0.121	1.03	1.02	1.09	1.05	0.851	0.557	0.109
H3255	0.409	0.321	0.272	0.579	0.594	0.572	0.574	0.529	0.292	0.358	0.387	0.913	0.926	0.943	1.09	0.891	0.665	0.443

Cell Line	relative viability ([1]; first compound 2 µM)	relative viability ([1]; first compound 6.325 µM)	relative viability ([1]; first compound 20 µM)	relative viability ([2]; first compound 0.1 µM)	relative viability ([2]; first compound 0.3162 µM)	relative viability ([2]; first compound 1 µM)	relative viability ([2]; first compound 3.162 µM)	relative viability ([2]; first compound 10 µM)	relative viability ([3]; first compound 2 µM)	relative viability ([3]; first compound 6.325 µM)	relative viability ([3]; first compound 20 µM)	relative viability ([4]; first compound 0.1 µM)	relative viability ([4]; first compound 0.3162 µM)	relative viability ([4]; first compound 1 µM)	relative viability ([4]; first compound 3.162 µM)	relative viability ([4]; first compound 10 µM)	relative viability ([1]; first compound 0.6325 µM)	relative viability ([3]; first compound 0.6325 µM)
NCI-H727	0.433	0.354	0.422		0.515	0.694	0.67	0.624	0.467	0.437	0.438	0.31	0.244	0.335	0.223	0.242	0.324	0.243
EKVX	0.766	0.33	0.205	0.716	0.971	0.866	1.04	0.849	0.457	0.387	0.3	0.948	1.24	0.977	1.05	1	1.03	
NCI-H1666	0.552	0.486	0.337	0.691	0.681	0.773	0.741	0.743	0.657	0.486	0.348	0.854	0.916	0.8	0.714	0.568	0.697	0.864
NCI-H1915	0.217	0.164	0.155	0.266	0.288	0.25	0.261	0.251	0.221	0.132	0.128	1.11	1.18	1.23	1.11	1.11	0.3	0.215
HCC-366	0.187	0.0425	0.0448	0.307	0.464	0.314	0.424	0.31	0.429	0.0758	0.0603	0.604	1.83	0.694	0.608	0.592	0.404	0.362
EPLC-272H	0.203	0.183	0.267	0.597	0.648	0.813	0.697	0.64	0.296	0.15	0.265	1.35	1.37	1.41		1.07	0.44	0.146
NCI-H1792	0.673	0.329	0.11	0.301	0.472	0.474	0.385	0.281	0.747	0.506	0.192	0.46	0.601	0.596	0.585	0.538	0.711	0.803
RERF-LC-KJ	0.835	0.501	0.454	0.818	1.04	0.914	0.876	0.811	0.725	0.449	0.158	0.946	1.04	0.915	0.943	0.895		0.805
NCI-H2126	0.384	0.289	0.312	0.903	1.07	0.936	0.845	0.865	0.55	0.41	0.135	0.683	0.698	0.717	0.762	0.702		
ABC-1	0.654	0.439	0.362	0.714	0.786	0.908	0.926	0.705	0.675	0.444	0.203	0.924	0.775	0.801	0.569	0.845		
NCI-H1355	0.4	0.222	0.237	0.742	0.72	0.724	0.797	0.775	0.85	0.511	0.272	0.941	0.864	0.844	0.97	0.84	0.711	
A-427	0.19	0.176	0.185	0.707	0.759	0.68	0.752	0.626	0.535	0.211	0.16	1.08	1.22	1.13		1.01		
NCI-H3122	0.301	0.244	0.255	0.623	0.64	0.663	0.649	0.579	0.619	0.149	0.117	0.992	1.05	1.09	1.12	1.08	0.824	0.142
NCI-H1437	0.67	0.262	0.147	0.638	0.681	0.632	0.643	0.575	0.534	0.254	0.111	1.13	1.26	1.15	1.04	0.91	0.75	0.229
COR-L23	0.238	0.158	0.119	0.333	0.403	0.377	0.325	0.359	0.272	0.239	0.0978	0.971	0.847	0.815	0.83	1.09	0.324	0.271
NCI-H1651	0.705	0.246	0.205	0.16	0.188	0.195	0.213	0.185	0.311	0.281	0.112	1.08	1.34	1.09	0.959	0.908	0.862	0.319
NCI-H2087	0.22	0.215	0.211	0.481	0.63	0.669	0.616	0.559	0.535	0.19	0.196	1.04	1.08	0.95	0.853	1.02	0.437	0.392
NCI-H661	0.538	0.277	0.269	0.763	0.976	0.718	0.786	0.665	0.64	0.353	0.141	0.433	0.645	0.557	0.518	0.651	0.798	0.691
